Laboratory results from ChEMBL document CHEMBL3593235, “Discovery of xanthine oxidase inhibitors and/or α-glucosidase inhibitors by carboxyalkyl derivatization based on the flavonoid of apigenin” (Bioorg Med Chem Lett, 2015).
Activity calls are given as the source filed them. The rule behind the calls is not given here.

What was measured:
[1] = Inhibition of alpha glucosidase (unknown origin) using para-nitrophenyl-alpha-D-glucopyranoside as substrate preincubated for 15 mins followed by substrate addition measured after 10 mins by spectrophotometric analysis; design: species or system Homo sapiens
Mus musculus [2] = experiment: Hypoglycemic activity in ICR mouse assessed as decrease in elevated postprandial blood glucose level at 20 mg/kg, po administered 30 mins prior to sucrose challenge measured after 30 mins by OSTT; format: functional, organism-based
Mus musculus [3] = experiment: Hypoglycemic activity in ICR mouse assessed as decrease in elevated postprandial blood glucose level at 20 mg/kg, po administered 30 mins prior to glucose challenge measured after 30 mins by OGTT; format: functional, organism-based
[4] = molecular target: Xanthine dehydrogenase/oxidase (Homo sapiens, UniProt P47989); experiment: Inhibition of xanthine oxidase (unknown origin) using xanthine as substrate preincubated for 15 mins followed by substrate addition measured after 30 mins by spectrophotometric analysis
Sequence of Xanthine dehydrogenase/oxidase (P47989 whole entry): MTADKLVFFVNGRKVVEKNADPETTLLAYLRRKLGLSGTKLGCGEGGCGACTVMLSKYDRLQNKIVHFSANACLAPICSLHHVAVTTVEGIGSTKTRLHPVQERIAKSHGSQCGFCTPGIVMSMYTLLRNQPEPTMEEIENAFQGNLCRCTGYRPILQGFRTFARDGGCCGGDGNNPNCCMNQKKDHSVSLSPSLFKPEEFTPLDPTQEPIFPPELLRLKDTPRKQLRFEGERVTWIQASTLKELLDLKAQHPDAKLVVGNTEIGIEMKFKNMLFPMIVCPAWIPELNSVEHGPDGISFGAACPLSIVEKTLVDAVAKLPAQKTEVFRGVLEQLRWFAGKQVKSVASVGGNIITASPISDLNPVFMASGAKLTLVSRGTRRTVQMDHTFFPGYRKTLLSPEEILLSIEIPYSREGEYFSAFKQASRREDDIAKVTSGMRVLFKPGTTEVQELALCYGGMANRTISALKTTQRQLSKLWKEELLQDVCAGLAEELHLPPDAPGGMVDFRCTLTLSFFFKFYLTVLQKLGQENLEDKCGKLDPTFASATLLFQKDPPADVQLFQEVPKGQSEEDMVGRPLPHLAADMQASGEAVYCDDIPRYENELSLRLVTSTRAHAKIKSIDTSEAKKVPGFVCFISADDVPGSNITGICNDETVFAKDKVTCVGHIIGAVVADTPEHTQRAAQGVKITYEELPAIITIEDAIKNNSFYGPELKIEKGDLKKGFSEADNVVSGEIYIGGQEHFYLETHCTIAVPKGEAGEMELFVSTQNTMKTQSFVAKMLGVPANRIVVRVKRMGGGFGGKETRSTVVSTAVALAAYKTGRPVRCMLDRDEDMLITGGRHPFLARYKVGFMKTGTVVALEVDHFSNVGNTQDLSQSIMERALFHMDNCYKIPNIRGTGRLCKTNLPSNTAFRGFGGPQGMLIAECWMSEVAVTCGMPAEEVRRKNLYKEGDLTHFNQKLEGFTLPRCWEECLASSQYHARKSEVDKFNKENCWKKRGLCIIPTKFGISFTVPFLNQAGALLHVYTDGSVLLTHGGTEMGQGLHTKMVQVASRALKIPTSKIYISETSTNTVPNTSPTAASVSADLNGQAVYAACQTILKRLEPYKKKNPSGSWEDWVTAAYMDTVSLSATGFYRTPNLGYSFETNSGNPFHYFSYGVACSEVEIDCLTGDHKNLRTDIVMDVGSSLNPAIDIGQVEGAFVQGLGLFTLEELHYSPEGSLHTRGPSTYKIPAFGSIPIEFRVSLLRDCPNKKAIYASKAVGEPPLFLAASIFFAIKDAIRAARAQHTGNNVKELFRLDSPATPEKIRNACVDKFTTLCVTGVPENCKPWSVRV

Mus musculus [5] = experiment: Hypouricemic activity in ICR mouse assessed as decrease in potassium oxonate-induced serum uric acid level at 10 mg/kg, ip after 1 hr by Uricase colorimetric method; format: functional, organism-based

IC50 [1] [µM] | IC50 [4] [µM] | Compound | Activity (Mus musculus [2]) | Activity (Mus musculus [3]) | Activity (Mus musculus [5])
39 |  | O=C(O)CCCCOc1cc(O)cc2oc(-c3ccc(O)cc3)cc(=O)c12 | inactive | inactive | 
> 500 | 0.25 | O=C(O)CCCCCCCOc1ccc(-c2cc(=O)c3c(O)cc(O)cc3o2)cc1 |  |  | 
44.5 | > 100 | O=C(O)CCCOc1cc(O)c2c(=O)cc(-c3ccc(O)cc3)oc2c1 |  |  | 
51.4 |  | O=C(O)CCCCCCOc1cc(O)cc2oc(-c3ccc(O)cc3)cc(=O)c12 | Active | inactive | 
18.3 | > 100 | O=C(O)CCCCCCCOc1cc(O)c2c(=O)cc(-c3ccc(O)cc3)oc2c1 | inactive | inactive | 
35.9 |  | O=C(O)CCCOc1cc(O)cc2oc(-c3ccc(O)cc3)cc(=O)c12 |  |  | 
33.7 | > 100 | O=C(O)CCCCOc1cc(O)c2c(=O)cc(-c3ccc(O)cc3)oc2c1 |  |  | 
113 |  | O=C(O)COc1cc(O)cc2oc(-c3ccc(O)cc3)cc(=O)c12 |  |  | 
61.2 |  | O=C(O)COc1cc(O)c2c(=O)cc(-c3ccc(O)cc3)oc2c1 |  |  | 

The remaining lines, values behind:

Compound | IC50 [1] [µM] | IC50 [4] [µM] | Activity (Mus musculus [2]) | Activity (Mus musculus [3]) | Activity (Mus musculus [5])
O=C(O)CCCOc1ccc(-c2cc(=O)c3c(O)cc(O)cc3o2)cc1 | > 500 | 0.6 |  |  | 
O=C(O)CCCCCOc1cc(O)cc2oc(-c3ccc(O)cc3)cc(=O)c12 | 26.2 |  | Active | inactive | 
O=C(O)CCCCCOc1ccc(-c2cc(=O)c3c(O)cc(O)cc3o2)cc1 | > 500 | 0.32 |  |  | 
O=C(O)CCCCCOc1cc(O)c2c(=O)cc(-c3ccc(O)cc3)oc2c1 | 101 | > 100 |  |  | 
O=C(O)CCCCCCOc1ccc(-c2cc(=O)c3c(O)cc(O)cc3o2)cc1 | > 500 | 0.098 |  |  | Active
O=c1cc(-c2ccc(O)cc2)oc2cc(O)cc(O)c12 [APIGENIN] | 24.3 | 3.2 | inactive |  | inactive
O=C(O)CCCCCCOc1cc(O)c2c(=O)cc(-c3ccc(O)cc3)oc2c1 | 90.4 | > 100 |  |  | 
O=C(O)COc1ccc(-c2cc(=O)c3c(O)cc(O)cc3o2)cc1 | > 500 |  |  |  | 
C[C@H]1O[C@H](O[C@H]2[C@H](O)[C@@H](O)[C@@H](O[C@H]3[C@H](O)[C@@H](O)C(O)O[C@@H]3CO)O[C@@H]2CO)[C@H](O)[C@@H](O)[C@@H]1N[C@H]1C=C(CO)[C@@H](O)[C@H](O)[C@H]1O (some centres undefined) [ACARBOSE] | 222 |  | Active |  | 
Oc1ncnc2[nH]ncc12 |  |  |  |  | Active
O=C(O)CCCCCCCOc1cc(O)cc2oc(-c3ccc(O)cc3)cc(=O)c12 | > 500 |  |  |  | 
O=C(O)CCCCOc1ccc(-c2cc(=O)c3c(O)cc(O)cc3o2)cc1 | > 500 | 0.22 |  |  | 
